# Where two headings read alike, the source gives them in different places.
# Tests used:
# [1] = target: T1, human ACC1 (acetyl-coenzyme A carboxylase alpha transcript variant 1) (Homo sapiens, UniProt Q13085); test: Human ACC1 enzyme assay, Assay B1 (ADP-Glo); type: biochemical
# T1 construct: FLAG (C); made in house; host or cells: baculovirus-infected insect cells (Hi5)
# [2] = target: human ACC2 (acetyl-coenzyme A carboxylase 2) (Homo sapiens, UniProt O00763); test: Human ACC2 enzyme assay, Assay B2 (ADP-Glo);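 note: human ACC2 activity read as ADP product, detected by luciferase glow luminescence after residual ATP removal, enzyme near 2 ng/µl in linear range, detection steps at 22 °C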
# human ACC2 (acetyl-coenzyme A carboxylase 2), sequence (O00763 27-2458 limits assumed): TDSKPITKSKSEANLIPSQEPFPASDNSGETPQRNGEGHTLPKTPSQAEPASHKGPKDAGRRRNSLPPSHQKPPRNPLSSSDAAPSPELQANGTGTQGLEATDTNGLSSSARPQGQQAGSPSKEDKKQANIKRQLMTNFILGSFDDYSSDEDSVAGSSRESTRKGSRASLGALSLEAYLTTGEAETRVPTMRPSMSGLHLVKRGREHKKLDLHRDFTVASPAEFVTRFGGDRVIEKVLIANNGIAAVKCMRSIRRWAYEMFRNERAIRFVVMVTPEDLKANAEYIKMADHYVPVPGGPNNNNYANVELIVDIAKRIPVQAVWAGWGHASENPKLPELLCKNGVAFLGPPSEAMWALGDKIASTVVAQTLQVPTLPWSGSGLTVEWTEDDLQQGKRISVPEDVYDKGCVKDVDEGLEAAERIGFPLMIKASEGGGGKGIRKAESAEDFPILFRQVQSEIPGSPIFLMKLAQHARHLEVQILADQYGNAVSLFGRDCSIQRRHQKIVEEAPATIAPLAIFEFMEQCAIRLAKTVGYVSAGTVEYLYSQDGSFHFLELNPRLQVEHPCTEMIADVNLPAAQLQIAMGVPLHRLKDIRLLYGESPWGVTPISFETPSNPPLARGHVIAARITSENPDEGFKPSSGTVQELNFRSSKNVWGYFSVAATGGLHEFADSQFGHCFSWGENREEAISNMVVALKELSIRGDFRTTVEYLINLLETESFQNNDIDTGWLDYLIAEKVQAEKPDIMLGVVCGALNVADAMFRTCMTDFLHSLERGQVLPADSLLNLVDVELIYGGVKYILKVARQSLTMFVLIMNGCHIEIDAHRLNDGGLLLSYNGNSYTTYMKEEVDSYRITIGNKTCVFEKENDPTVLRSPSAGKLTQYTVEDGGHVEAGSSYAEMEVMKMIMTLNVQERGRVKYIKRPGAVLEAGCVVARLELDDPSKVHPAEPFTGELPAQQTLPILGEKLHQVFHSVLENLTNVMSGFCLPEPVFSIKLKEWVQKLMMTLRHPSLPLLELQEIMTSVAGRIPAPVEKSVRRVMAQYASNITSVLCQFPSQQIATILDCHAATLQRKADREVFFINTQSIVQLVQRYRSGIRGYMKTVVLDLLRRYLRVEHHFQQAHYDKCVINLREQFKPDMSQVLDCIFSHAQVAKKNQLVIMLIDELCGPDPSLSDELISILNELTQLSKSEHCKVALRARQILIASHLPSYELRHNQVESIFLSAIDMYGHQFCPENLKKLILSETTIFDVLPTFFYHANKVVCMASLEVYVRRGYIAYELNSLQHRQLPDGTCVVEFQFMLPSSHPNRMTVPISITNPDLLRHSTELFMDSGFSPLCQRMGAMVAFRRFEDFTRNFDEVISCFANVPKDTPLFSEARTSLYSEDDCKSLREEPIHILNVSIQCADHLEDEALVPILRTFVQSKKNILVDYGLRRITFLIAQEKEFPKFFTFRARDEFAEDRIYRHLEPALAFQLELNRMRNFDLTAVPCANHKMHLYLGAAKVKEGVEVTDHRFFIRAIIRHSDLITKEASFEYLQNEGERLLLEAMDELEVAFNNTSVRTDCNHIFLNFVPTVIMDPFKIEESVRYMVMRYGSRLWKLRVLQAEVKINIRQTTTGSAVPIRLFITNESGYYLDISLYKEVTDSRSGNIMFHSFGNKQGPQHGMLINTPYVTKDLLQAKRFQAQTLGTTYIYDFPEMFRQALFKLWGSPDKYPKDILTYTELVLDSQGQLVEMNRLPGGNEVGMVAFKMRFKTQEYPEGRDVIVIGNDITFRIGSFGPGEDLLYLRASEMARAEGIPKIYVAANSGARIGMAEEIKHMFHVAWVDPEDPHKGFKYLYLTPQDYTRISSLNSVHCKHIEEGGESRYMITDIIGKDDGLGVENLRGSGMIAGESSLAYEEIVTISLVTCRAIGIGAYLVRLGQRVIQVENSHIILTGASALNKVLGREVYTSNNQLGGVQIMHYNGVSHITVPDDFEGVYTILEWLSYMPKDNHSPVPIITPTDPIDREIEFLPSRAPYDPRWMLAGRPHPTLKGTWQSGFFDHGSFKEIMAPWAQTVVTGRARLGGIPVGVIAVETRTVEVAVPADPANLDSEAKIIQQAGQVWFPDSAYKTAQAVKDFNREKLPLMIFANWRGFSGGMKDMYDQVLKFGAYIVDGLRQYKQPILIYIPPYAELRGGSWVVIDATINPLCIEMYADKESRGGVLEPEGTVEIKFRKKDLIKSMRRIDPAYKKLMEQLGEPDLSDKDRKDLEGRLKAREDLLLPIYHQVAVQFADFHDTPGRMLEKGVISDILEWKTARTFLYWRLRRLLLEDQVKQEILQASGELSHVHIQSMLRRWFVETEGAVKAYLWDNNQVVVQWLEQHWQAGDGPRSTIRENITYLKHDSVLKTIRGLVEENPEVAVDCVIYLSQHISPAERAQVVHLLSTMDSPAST
# [3] = Assay B1, read-out: ACC 1 (=B1) IC50
# [4] = Assay B1, ADP-Glo, read-out: ACC 1 (=B1) IC50
Structure (SMILES),"IC50 [1, 3]",IC50 [2],IC50 [1],"IC50 [1, 4]"
"CC1(C)COC2(CCC3(CC2)NC(=O)C(c2cc(-c4ccc(Cl)cc4)ccc2Cl)=C3O)OC1 [1-65, 3-(4,4′-dichlorobiphenyl-3-yl)-4-hydroxy-11,11-dimethyl-9,13-dioxa-1-azadispiro[4.2.5.2]pentadec-3-en-2-one]",1160 nM,14.7 µM,,
"O=c1[nH]c2cc(Cl)ccc2c(O)c1-c1cc(-c2ccc(Cl)cc2)ccc1Cl [9-13, 7-chloro-3-(4,4′-dichlorobiphenyl-3-yl)-4-hydroxyquinolin-2(1H)-one]",191 nM,3.96 µM,,
"Cc1ccc(-c2ccc(Cl)cc2)cc1C1=C(O)C2(CCCC(C)C2)NC1=O (stereo not shown) [1-82, 3-(4′-chloro-4-methylbiphenyl-3-yl)-4-hydroxy-7-methyl-1-azaspiro[4.5]dec-3-en-2-one]",539 nM,1.32 µM,,
"CC[C@]1(OC)CC[C@@]2(CC1)NC(=O)C(c1c(C)ccc(-c3ccc(F)cc3)c1C)=C2O [1-89, (5r,8r)-8-ethyl-3-(4′-fluoro-2,4-dimethylbiphenyl-3-yl)-4-hydroxy-8-methoxy-1-azaspiro[4.5]dec-3-en-2-one]",,13.6 µM,2070 nM,
"Cc1ccc(-c2ccc(Cl)cc2)cc1C1=C(O)C2(CCCCCC2)OC1=O [2-38, 3-(4′-chloro-4-methylbiphenyl-3-yl)-4-hydroxy-1-oxaspiro[4.6]undec-3-en-2-one]",,7.38 µM,393 nM,
"Cc1ccc(-c2ccc(Cl)cc2)cc1C1=C(O)C2(CCCC2)NC1=O [1-85, 3-(4′-chloro-4-methylbiphenyl-3-yl)-4-hydroxy-1-azaspiro[4.4]non-3-en-2-one]",251 nM,9.21 µM,,
"Cc1ccc(-c2ccc(Cl)cc2)cc1C1=C(O)C2(CCC3(CC2)OCCO3)NC1=O [1-60, 11-(4′-chloro-4-methylbiphenyl-3-yl)-12-hydroxy-1,4-dioxa-9-azadispiro[4.2.4.2]tetradec-11-en-10-one]",,5.99 µM,189 nM,
"Cc1cc(C)c(-c2ccc(Cl)cc2)c(C)c1C1=C(O)C(C)(C)OC1=O [2-5, 3-(4′-chloro-2,4,6-trimethylbiphenyl-3-yl)-4-hydroxy-5,5-dimethylfuran-2(5H)-one]",,7.34 µM,1260 nM,
"COC1CCC2(CC1)OC(=O)C(c1cc(-c3ccc(Cl)cc3)ccc1C)=C2O (stereo not shown) [2-39, 3-(4′-chloro-4-methylbiphenyl-3-yl)-4-hydroxy-8-methoxy-1-oxaspiro[4.5]dec-3-en-2-one]",,5.27 µM,,162 nM
"COCCO[C@@H]1CCC[C@]2(C1)NC(=O)C(c1cc(-c3ccc(Cl)cc3)ccc1Cl)=C2O (relative stereo) [1-74, rel-(5R,7R)-3-(4,4′-dichlorobiphenyl-3-yl)-4-hydroxy-7-(2-methoxyethoxy)-1-azaspiro[4.5]dec-3-en-2-one]",,> 20 µM,2420 nM,
"COC1CCCC2(C1)OC(=O)C(c1cc(-c3ccc(Cl)cc3)ccc1C)=C2O (stereo not shown) [2-14, 3-(4′-chloro-4-methylbiphenyl-3-yl)-4-hydroxy-7-methoxy-1-oxaspiro[4.5]dec-3-en-2-one]",,> 20 µM,,772 nM
"Cc1ccc(-c2ccc(Cl)cc2)cc1C1=C(O)C(C)(C(C)C)NC1=O (stereo not shown) [1-78, 3-(4′-chloro-4-methylbiphenyl-3-yl)-4-hydroxy-5-methyl-5-(propan-2-yl)-1,5-dihydro-2H-pyrrol-2-one]",958 nM,8.12 µM,,
"Cc1cc(C)c(-c2ccc(Cl)cc2)c(C)c1C1=C(O)C2(CCCC2)OC1=O [2-49, 3-(4′-chloro-2,4,6-trimethylbiphenyl-3-yl)-4-hydroxy-1-oxaspiro[4.4]non-3-en-2-one]",,> 20 µM,≥ 20000 nM,
"COCCC1CCCC2(C1)OC(=O)C(c1cc(-c3ccc(Cl)cc3)ccc1Cl)=C2O (stereo not shown) [2-19, 3-(4,4′-dichlorobiphenyl-3-yl)-4-hydroxy-7-(2 methoxyethyl)-1-oxaspiro[4.5]dec-3-en-2-one]",,13.6 µM,,812 nM
"Cc1ccc(-c2ccc(Cl)cc2)cc1C1=C(O)C2(CCC3(CC2)OCC(C)O3)NC1=O (stereo not shown) [1-63, 11-(4′-chloro-4-methylbiphenyl-3-yl)-12-hydroxy-2-methyl-1,4-dioxa-9-azadispiro[4.2.4.2]tetradec-11-en-10-one]",,7.27 µM,277 nM,
"Cc1ccc(-c2ccc(Cl)cc2)cc1C1=C(O)C(C)N(C(C)C)C1=O (stereo not shown) [1-19, 3-(4′-chloro-4-methylbiphenyl-3-yl)-4-hydroxy-5-methyl-1-(propan-2-yl)-1,5-dihydro-2H-pyrrol-2-one]",532 nM,≥ 20 µM,,
"Cc1ccc(-c2ccc(Cl)cc2)c(C)c1C1=C(O)C2(CCCC2)OC1=O [2-2, 3-(4′-chloro-2,4-dimethylbiphenyl-3-yl)-4-hydroxy-1-oxaspiro[4.4]non-32--en-2-one]",,> 20 µM,2360 nM,
"Cc1ccc(-c2ccc(Cl)cc2)c(C)c1C1=C(O)C2(CCC3(CC2)OCCO3)NC1=O [1-70, 11-(4′-chloro-2,4-dimethylbiphenyl-3-yl)-12-hydroxy-1,4-dioxa-9-azadispiro[4.2.4.2]tetradec-11-en-10-one]",,2.92 µM,286 nM,

Structure (SMILES),"IC50 [1, 3]",IC50 [2],IC50 [1],"IC50 [1, 4]"
"Cc1ccc(-c2ccc(Cl)cc2)c(C)c1C1=C(O)C2(CCC3(CC2)OCC(C)O3)NC1=O (stereo not shown) [1-62, 11-(4′-chloro-2,4-dimethylbiphenyl-3-yl)-12-hydroxy-2-methyl-1,4-dioxa-9-azadispiro[4.2.4.2]tetradec-11-en-10-one]",385 nM,5.74 µM,,
"Cc1ccc(-c2ccc(Cl)cc2)cc1C1=C(O)C2(CCCC2)CC1=O [6-4, 3-(4′-chloro-4-methylbiphenyl-3-yl)-4-hydroxyspiro[4.4]non-3-en-2-one]",218 nM,4.63 µM,,
"COC1CCCC2(C1)NC(=O)C(c1c(C)ccc(-c3ccc(Cl)cc3)c1C)=C2O (stereo not shown) [1-72, 3-(4′-chloro-2,4-dimethylbiphenyl-3-yl)-4-hydroxy-7-methoxy-1-azaspiro[4.5]dec-3-en-2-one]",,14.9 µM,1140 nM,
"CCCC1CCC2(CC1)OC(=O)C(c1cc(-c3ccc(Cl)cc3)ccc1C)=C2O (stereo not shown) [2-36, 3-(4′-chloro-4-methylbiphenyl-3-yl)-4-hydroxy-8-propyl-1-oxaspiro[4.5]dec-3-en-2-one]",,2.41 µM,447 nM,
"CCOC1CCC2(CC1)NC(=O)C(c1cc(-c3ccc(Cl)cc3)ccc1C)=C2O (stereo not shown) [1-28, 3-(4′-chloro-4-methylbiphenyl-3-yl)-8-ethoxy-4-hydroxy-1-azaspiro[4.5]dec-3-en-2-one]",438 nM,2.11 µM,,
"CCOCCO[C@@H]1CC[C@@]2(C1)NC(=O)C(c1cc(-c3ccc(Cl)cc3)ccc1C)=C2O (relative stereo) [1-50, rel-(5R,7S)-3-(4′-chloro-4-methylbiphenyl-3-yl)-7-(2-ethoxyethoxy)-4-hydroxy-1-azaspiro[4.4]non-3-en-2-one]",11800 nM,> 20 µM,,
"Cc1ccc(-c2ccc(Cl)cc2)cc1C1=C(O)C2(CCC3(CC2)OC(C)C(C)O3)NC1=O (stereo not shown) [1-64, 11-(4′-chloro-4-methylbiphenyl-3-yl)-12-hydroxy-2,3-dimethyl-1,4-dioxa-9-azadispiro[4.2.4.2]tetradec-11-en-10-one]",,> 20 µM,571 nM,
"Cc1ccc(-c2ccc(Cl)cc2)cc1C1=C(O)C(C)(C2CC2)NC1=O (stereo not shown) [1-86, 3-(4′-chloro-4-methylbiphenyl-3-yl)-5-cyclopropyl-4-hydroxy-5-methyl-1,5-dihydro-2H-pyrrol-2-one]",575 nM,6.12 µM,,
"COC1CCCC2(C1)OC(=O)C(c1cc(-c3ccc(Cl)cc3)c(C)cc1C)=C2O (stereo not shown) [2-11, 3-(4′-chloro-4,6-dimethylbiphenyl-3-yl)-4-hydroxy-7-methoxy-1-oxaspiro[4.5]dec-3-en-2-one]",,12.4 µM,,1260 nM
"Cc1ccc(-c2ccc(F)cc2)c(C)c1C1=C(O)C2(CCCCC2)NC1=O [1-40, 3-(4′-fluoro-2,4-dimethylbiphenyl-3-yl)-4-hydroxy-1-azaspiro[4.5]dec-3-en-2-one]",1320 nM,> 20 µM,,
"COCCC1CCCC2(C1)NC(=O)C(c1c(C)ccc(-c3ccc(Cl)cc3)c1C)=C2O (stereo not shown) [1-55, 3-(4′-chloro-2,4-dimethylbiphenyl-3-yl)-4-hydroxy-7-(2-methoxyethyl)-1-azaspiro[4.5]dec-3-en-2-one]",924 nM,3.29 µM,,
"Cc1ccc(-c2cccc(Cl)c2)cc1C1=C(O)C2(CCCCCC2)OC1=O [2-50, 3-(3′-chloro-4-methylbiphenyl-3-yl)-4-hydroxy-1-oxaspiro[4.6]undec-3-en-2-one]",,15.4 µM,1300 nM,
"O=C1OC2(CCC3(CCCO3)CC2)C(O)=C1c1cc(-c2ccc(Cl)cc2)ccc1Cl (stereo not shown) [2-27, 3-(4,4′-dichlorobiphenyl-3-yl)-4-hydroxy-1,9-dioxadispiro[4.2.4.2]tetradec-3-en-2-one]",,7.01 µM,801 nM,
"CC1COC2(CCC3(CC2)NC(=O)C(c2cc(-c4ccc(Cl)cc4)ccc2Cl)=C3O)O1 (stereo not shown) [1-68, 11-(4,4′-dichlorobiphenyl-3-yl)-12-hydroxy-2-methyl-1,4-dioxa-9-azadispiro[4.2.4.2]tetradec-11-en-10-one]",,5.9 µM,547 nM,
"CCC1CCC2(CC1)OC(=O)C(c1cc(-c3ccc(Cl)cc3)ccc1C)=C2O (stereo not shown) [2-1, 3-(4′-chloro-4-methylbiphenyl-3-yl)-8-ethyl-4-hydroxy-1-oxaspiro[4.5]dec-3-en-2-one]",,15.2 µM,,1140 nM
"CC1COC2(CCC3(CC2)NC(=O)C(c2cc(-c4ccc(Cl)cc4)ccc2Cl)=C3O)OC1 (stereo not shown) [1-69, 3-(4,4′-dichlorobiphenyl-3-yl)-4-hydroxy-11-methyl-9,13-dioxa-1-azadispiro[4.2.5.2]pentadec-3-en-2-one]",838 nM,> 20 µM,,
"Cc1ccc(-c2ccc(F)cc2)c(C)c1C1=C(O)C2(CCC(OCC(F)(F)F)CC2)NC1=O (stereo not shown) [1-31, 3-(4′-fluoro-2,4-dimethylbiphenyl-3-yl)-4-hydroxy-8-(2,2,2-trifluoroethoxy)-1-azaspiro[4.5]dec-3-en-2-one]",,7.89 µM,811 nM,

# From patent publication US20130040935A1, “CYCLIC KETO-ENOLS FOR THERAPY” (BAYER INTELLECTUAL PROPERTY GMBH, priority 2010, published 2013)
